Assay results reported in patent US9028845B2, “Chimeric immunomodulatory compounds and methods of using the same-IV” (Dynavax Technologies Corporation, priority 2001, dated 2015).
No end group written: not given here.

System: human PBMCs
Assay: Human PBMC cytokine response assay (IFN-γ and IFN-α in cell-free medium by ELISA), with or without cPLGA;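 for IFN-α (pg/ml) mean: 20 µg/mL compound for 24 hours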;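 for IFN-γ (pg/ml) mean: 20 µg/mL compound for 24 hours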
Format: cell-based
Details: for immunomodulatory activity (IFN-γ / IFN-α secretion), in words: used alone (no cPLGA); for IFN-α mean: mean of four donors
[1] = mean of donors 28185-28188, Table 15
[2] = Table 26, mean of donors 28313-28316
[3] = mean of Donors 3-4, 20 μg/ml, 24 h
[4] = Table 25, mean of donors 28250-28253
[5] = mean of donors 110, 112, 119, 120, Table 14

5′-TCG-3′-(ab)3-5′-T-3′ [Compound C-91]
IFN-a (donor 28185, Table 15): 9 pg/mL | IFN-g (donor 28185, Table 15): 3 pg/mL | IFN-a (donor 28186, Table 15): 46 pg/mL | IFN-g (donor 28186, Table 15): 4 pg/mL | IFN-a (donor 28187, Table 15): 37 pg/mL | IFN-g (donor 28187, Table 15): 6 pg/mL | IFN-a (donor 28188, Table 15): 4 pg/mL | IFN-g (donor 28188, Table 15): 7 pg/mL | activity when formulated with cPLGA, in words (formulated with cPLGA): significant activity when formulated on cPLGA | IFN-a (pg/ml) mean [1]: 24 pg/mL | IFN-g (pg/ml) mean [1]: 5 pg/mL | IFN-a (pg/ml) ×2 (mean ×2, Table 15): 48 pg/mL | IFN-g (pg/ml) ×4 (mean ×4, Table 15): 20 pg/mL | immunomodulatory activity (IFN-γ / IFN-α secretion), in words: neither CIC was active on its own

(5′-TCGACGT-HEG)2-glycerol-HEG-5′-TTGGCCAAGCTTGGCCAA (SEQ ID NO: 116) (DNA, all phosphorothioate, methylation of C not given here; Two heptamer DNA arms joined by HEG spacers and glycerol branching to the chain) [Compound C-178]
IFN-α (Example 59, 0.8 ug/ml, donor 48): 336 pg/mL | IFN-α (Example 59, 0.8 ug/ml, donor 177): 1150 pg/mL | IFN-α (Example 59, 0.8 ug/ml, donor 272): 149 pg/mL | IFN-α (Example 59, 0.8 ug/ml, donor 273): 102 pg/mL | IFN-α mean (Example 59, 0.8 ug/ml): 434 pg/mL | IFN-α (Example 59, 4 ug/ml, donor 48): 16300 pg/mL | IFN-α (Example 59, 4 ug/ml, donor 177): 8304 pg/mL | IFN-α (Example 59, 4 ug/ml, donor 272): 1677 pg/mL | IFN-α (Example 59, 4 ug/ml, donor 273): 1732 pg/mL | IFN-α mean (Example 59, 4 ug/ml): 7003 pg/mL | IFN-α (Example 59, 20 ug/ml, donor 48): 13946 pg/mL | IFN-α (Example 59, 20 ug/ml, donor 177): 19973 pg/mL | IFN-α (Example 59, 20 ug/ml, donor 272): 15050 pg/mL | IFN-α (Example 59, 20 ug/ml, donor 273): 3971 pg/mL | IFN-α mean (Example 59, 20 ug/ml): 13235 pg/mL

(5′-TCGACGT-3′-HEG)x-Ficoll400 (X range = 150-250, ave. 185) See example 49 (not fully specified (C-terminus); cysteine pairing not given here; also: about 185 copies attached to Ficoll400) [Compound C-137]
IFN-a (Table 26, donor 28313): 3612 pg/mL | IFN-g (Table 26, donor 28313): 1 pg/mL | IFN-a (Table 26, donor 28314): 5468 pg/mL | IFN-g (Table 26, donor 28314): 22 pg/mL | IFN-a (Table 26, donor 28315): 624 pg/mL | IFN-g (Table 26, donor 28315): 13 pg/mL | IFN-a (Table 26, donor 28316): 4000 pg/mL | IFN-g (Table 26, donor 28316): 54 pg/mL | IFN-g mean ×4 (Table 26, mean multiplied by 4): 90 pg/mL | IFN-a mean [2]: 3426 pg/mL | IFN-g mean [2]: 22 pg/mL | IFN-α induction, in words (used alone): significant stimulation of IFN-α | immunomodulatory activity (IFN-γ / IFN-α secretion), in words: striking activity in the cytokine response assays

5′-ATCTCGA-3′ [Compound P-5, reference compound]
IFN-α (pg/ml) Donor 3 (Donor 3, 20 μg/ml, 24 h): 0 pg/mL | IFN-γ (pg/ml) Donor 3 (Donor 3, 20 μg/ml, 24 h): 0 pg/mL | IFN-α (pg/ml) Donor 4 (Donor 4, 20 μg/ml, 24 h): 57 pg/mL | IFN-γ (pg/ml) Donor 4 (Donor 4, 20 μg/ml, 24 h): 3 pg/mL | IFN-α (pg/ml) mean [3]: 29 pg/mL | IFN-γ (pg/ml) mean [3]: 2 pg/mL | immunomodulatory activity (IFN-γ / IFN-α secretion), in words: did not have immunomodulatory activity

5′-TCGACGT-3′ [Compound P-14, reference compound]
IFN-a (Table 25, donor 28250): 16 pg/mL | IFN-g (Table 25, donor 28250, polynucleotides/spacers at amounts equivalent to the CIC, spacers alone 9 uM): 10 pg/mL | IFN-a (Table 25, donor 28251): 16 pg/mL | IFN-g (Table 25, donor 28251): 34 pg/mL | IFN-a (Table 25, donor 28252): 16 pg/mL | IFN-g (Table 25, donor 28252): 11 pg/mL | IFN-a (Table 25, donor 28253): 16 pg/mL | IFN-g (Table 25, donor 28253): 10 pg/mL | IFN-a mean [4]: 16 pg/mL | IFN-g mean [4]: 16 pg/mL

5′-AGATGAT-3′-HEG-5′-TCGTCGA-3′-HEG-5′-ACGTTCG-3′ [Compound C-59]
IFN-α (donor 110, Table 14): 2 pg/mL | IFN-γ (donor 110, Table 14): 256 pg/mL | IFN-α (donor 112, Table 14): 6 pg/mL | IFN-γ (donor 112, Table 14): 52 pg/mL | IFN-α (donor 119, Table 14): 2 pg/mL | IFN-γ (donor 119, Table 14): 28 pg/mL | IFN-α (donor 120, Table 14): 2 pg/mL | IFN-γ (donor 120, Table 14): 40 pg/mL | IFN-α (pg/ml) mean [5]: 3 pg/mL | IFN-γ (pg/ml) mean [5]: 94 pg/mL
